# Tests used:
# [1] = tested on: men and women with overactive bladder; assay: Phase 3 study (75 mg), patient-reported outcomes (OAB-q LF, PGI); assay type: in vivo, human; parameters: OAB-q sleep score, improvement greater than placebo / HRQL Total Score, improvement greater than placebo / OAB-q HRQL Total Score, Active - Placebo LS Means Difference: scale not given here
# Excerpt: Patients completed paper questionnaires at the site at the start of each required study visit to assess patient-perceived symptom relief, symptom bother, and health-related quality of life at the study visits. […] These included the following questionnaires:
# 1. Global Impression Items include Patient Global Impression of Severity (PGI-Severity), Patient Global Impression of Control (PGI-Control), Patient Global Impression of Frequency (PGI-Frequency), Patient Global Impression of Leakage (PGI-Leakage), and Patient Global Impression of Change (PGI-Change).
# 2. Overactive Bladder Questionnaire (OAB-q long form [OAB-q LF], 1-week recall) is a 33-item patient-administered, disease-specific questionnaire that includes a Health-Related QoL (HRQL) scale (25 items) and a Symptom Bother Scale (8 items). The HRQL is a multidomain concept that represents the patient's general perception of the effect of illness and treatment on physical, psychological, and social aspects of life. […] In the present study, the HRQL scale is divided into 4 subscales: Coping, Concern/Worry, Sleep, and Social Interaction. The Coping subscale (also referred to as the coping domain score) was a secondary endpoint, with items scored from 1 (none of the time) to 6 (all the time), with higher scores indicating better QoL. The HRQL total score is calculated by summating the individual HRQL subscale scores. The Symptom Bother Scale items are scored from 1 (not at all) to 6 (a very great deal), with higher Symptom Bother scores indicating greater symptom severity. The instrument was developed and validated in both continent and incontinent OAB patients, including both men and women.
# With the exception of the symptom bother score, a responder was defined as having a change from baseline ≥10. For symptom bother score, a responder was defined as having a change from baseline […]. A higher proportion of patients represented a favorable response.
# [2] = Phase 3 study (75 mg), heart rate and blood pressure changes; assay type: in vivo, human
# Excerpt: Study assessments of safety included adverse events, physical examinations, vital signs (and weight), and clinical laboratory tests
# Categorical changes are based on 3 consecutive post-baseline visits and patients are counted in all applicable categories (e.g., if a patient has a 12 unit increase then that patient is counted in both ≥5 and ≥10 unit columns).
# Blood Pressure assessments are taken in triplicate and averaged at each visit.
# [3] = Excerpt: A placebo group was included in the main study, and a group that received tolterodine monotherapy was included in the main study and in the extension.
# [4] = 50% Total Incontinence Responders, Week 12
# [5] = Week 12, responder = change from baseline ≥10
# [6] = 3 consecutive post-baseline visits
structure (smiles),measurement,setting,value
"Cc1ccc(O)c([C@H](CCN(C(C)C)C(C)C)c2ccccc2)c1 [Tolterodine ER, tolterodine, reference compound]","OAB-q Coping Subscore, Change from baseline at week 12, LS Means (SE)",[1]; [4],18.5 (1.49)
same,"OAB-q Coping Subscore, Mean",[1]; [4],81.66 (20.882)
same,"OAB-q Symptom Bother Subscore, Change from baseline at week 12, LS Means",[1]; [4],−21.7
same,"OAB-q Symptom Bother Subscore, Mean",[1]; [4],24.70
same,"Change from Baseline in PGI-Control, LS Mean","[1]; 75% UUI Responders, Week 4",−0.7 (0.07)
same,"PGI-Control, Mean (SD)","[1]; 75% UUI Responders, Week 4",2.51 (0.907)
same,"Change from Baseline in PGI-Control, LS Mean","[1]; 75% UUI Responders, Week 8",−1.0 (0.07)
same,"PGI-Control, Mean (SD)","[1]; 75% UUI Responders, Week 8",2.18 (0.861)
same,"Change from Baseline in PGI-Control, LS Mean","[1]; 75% UUI Responders, Week 12",−1.1 (0.07)
same,"OAB-q Coping Subscore, Change from baseline at week 12, LS Means (SE)","[1]; 75% UUI Responders, Week 12",18.4 (1.73)
same,"OAB-q Coping Subscore, Mean (SD)","[1]; 75% UUI Responders, Week 12",83.05 (20.409)
same,"OAB-q Symptom Bother Subscore, Change from Baseline at Week 12, LS Means (SE)","[1]; 75% UUI Responders, Week 12",−22.7 (1.60)
same,"OAB-q Symptom Bother Subscore, Mean (SD)","[1]; 75% UUI Responders, Week 12",22.59 (17.919)
same,"PGI-Control, Mean (SD)","[1]; 75% UUI Responders, Week 12",2.05 (0.862)
same,"OAB-q Concern Subscore, Week 12 Mean (SD)",[1]; Week 12,80.93 (21.467)
same,"OAB-q Concern responders, Difference from Placebo",[1]; Week 12,7.2
same,"OAB-q Concern, Active - Placebo LS Means Difference",[1]; Week 12,4.4
same,"OAB-q Concern, change from baseline LS Means (SE)",[1]; Week 12,14.7(1.32)
same,"OAB-q Coping Score, Active - Placebo LS Means Difference",[1]; Week 12,3.1
same,"OAB-q Coping Score, change from baseline LS Means (SE)",[1]; Week 12,15.9 (1.39)
same,"OAB-q Coping Sub score, Week 12 Mean (SD)",[1]; Week 12,77.77 (23.439)
same,"OAB-q Coping responders, Difference from Placebo",[1]; Week 12,6.9
same,"OAB-q HRQL Total Score, Active - Placebo LS Means Difference",[1]; Week 12,2.9
same,"OAB-q HRQL Total Score, change from baseline LS Means (SE)",[1]; Week 12,13.6 (1.19)
same,"OAB-q Sleep Subscore, Week 12 Mean (SD)",[1]; Week 12,74.25 (23.140)
same,"OAB-q Sleep responders, Difference from Placebo",[1]; Week 12,−0.5
same,"OAB-q Sleep, Active - Placebo LS Means Difference",[1]; Week 12,2.6
same,"OAB-q Sleep, change from baseline LS Means (SE)",[1]; Week 12,12.9 (1.42)
same,"OAB-q Social Interaction Subscore, Week 12 Mean (SD)",[1]; Week 12,88.35 (18.214)
same,"OAB-q Social Interaction responders, Difference from Placebo",[1]; Week 12,2.2
same,"OAB-q Social Interaction, Active - Placebo LS Means Difference",[1]; Week 12,0.6
same,"OAB-q Social Interaction, change from baseline LS Means (SE)",[1]; Week 12,9.4 (1.03)
same,"OAB-q Symptom Bother Subscore, Week 12 Mean (SD)",[1]; Week 12,29.33 (19.568)
same,"OAB-q Symptom Bother responders, Difference from Placebo",[1]; Week 12,8.2
same,"OAB-q Symptom Bother, Active - Placebo LS Means Difference",[1]; Week 12,−4.6
same,"OAB-q Symptom Bother, change from baseline LS Means (SE)",[1]; Week 12,−17.4 (1.31)
same,"OAB-q Total HRQL Score, Week 12 Mean (SD)",[1]; Week 12,80.07 (19.826)
same,"OAB-q Total HRQL responders, Difference from Placebo",[1]; Week 12,3.1
same,"OAB-q Symptom Bother responders, %","[1]; Week 12, responder = change from baseline ≤−10",(66.5) %
same,"OAB-q Concern responders, %",[1]; [5],(57.0) %
same,"OAB-q Coping responders, %",[1]; [5],(61.3) %
same,"OAB-q Sleep responders, %",[1]; [5],(51.3) %
same,"OAB-q Social Interaction responders, %",[1]; [5],(37.4) %
same,"OAB-q Total HRQL responders, %",[1]; [5],(51.8) %
same,"OAB-q Concern responders, Odds Ratio","[1]; Week 12, vs placebo",1.6
same,"OAB-q Coping responders, Odds Ratio","[1]; Week 12, vs placebo",1.5
same,"OAB-q Sleep responders, Odds Ratio","[1]; Week 12, vs placebo",1.1
same,"OAB-q Social Interaction responders, Odds Ratio","[1]; Week 12, vs placebo",1.2
same,"OAB-q Symptom Bother responders, Odds Ratio","[1]; Week 12, vs placebo",1.6
same,"OAB-q Total HRQL responders, Odds Ratio","[1]; Week 12, vs placebo, logistic regression",1.3
same,"Diastolic BP categorical change from baseline ≥5 mm Hg, patients",[2]; [6],7.4%
same,"Diastolic BP categorical change from baseline ≥10 mm Hg, patients",[2]; [6],2.1%
same,"Diastolic BP categorical change from baseline ≥15 mm Hg, patients",[2]; [6],0.7%
same,"Heart Rate categorical change from baseline ≥5 bpm, patients",[2]; [6],6.5%
same,"Heart Rate categorical change from baseline ≥10 bpm, patients",[2]; [6],2.1%
same,"Heart Rate categorical change from baseline ≥15 bpm, patients",[2]; [6],0.5%
same,"Systolic BP categorical change from baseline ≥5 mm Hg, patients",[2]; [6],9.3%
same,"Systolic BP categorical change from baseline ≥10 mm Hg, patients",[2]; [6],4.7%
same,"Systolic BP categorical change from baseline ≥15 mm Hg, patients",[2]; [6],2.1%
same,"Diastolic BP, 12-week change (95% CI)",[2]; Hypertensive at baseline,"−1.3 (−3.8, +1.3) mm Hg"
same,"Heart Rate, 12-week change",[2]; Hypertensive at baseline,+1.5 beats/minute
same,"Systolic BP, 12-week change (95% CI)",[2]; Hypertensive at baseline,"−7.6 (−10.9, −4.3) mm Hg"
same,"Diastolic BP, 12-week change (95% CI)",[2]; Normotensive at baseline,"+0.5 (−0.2, +1.3) mm Hg"
same,"Heart Rate, 12-week change",[2]; Normotensive at baseline,+0.2 beats/minute
same,"Systolic BP, 12-week change (95% CI)",[2]; Normotensive at baseline,"+1.0 (−0.1, +2.1) mm Hg"
same,"Diastolic BP, Mean Change from Baseline at Week 12 (SD)","[2]; Week 12, all patients",0.3 (7.11) mm Hg
same,"Heart Rate, Mean Change from Baseline at Week 12","[2]; Week 12, all patients",0.3 beats/minute
same,"Systolic BP, Mean Change from Baseline at Week 12","[2]; Week 12, all patients",0.1 mm Hg
same,frequency of injuries,"[3]; Phase 2 study, tolterodine arm vs vibegron",2.1%
same,"SAEs reported in treatment group, number","[3]; tolterodine 4 mg, main study",3
same,Accidental overdose,[3]; tolterodine ER 4 mg,6 (2.3) n (%)
same,Alanine aminotransferase increased,[3]; tolterodine ER 4 mg,1 (0.4) n (%)
same,Arthralgia,[3]; tolterodine ER 4 mg,3 (1.2) n (%)
same,Aspartate aminotransferase increased,[3]; tolterodine ER 4 mg,0 (0.0) n (%)
same,Constipation,[3]; tolterodine ER 4 mg,5 (1.9) n (%)
same,Diarrhea,[3]; tolterodine ER 4 mg,9 (3.5) n (%)
same,Discontinuation due to AE,[3]; tolterodine ER 4 mg,4 (1.6) n (%)
same,Discontinuation due to drug-related AE,[3]; tolterodine ER 4 mg,0 n (%)
same,Dizziness,[3]; tolterodine ER 4 mg,5 (1.9) n (%)
same,Drug-related AE,[3]; tolterodine ER 4 mg,42 (16.3) n (%)
same,Dry eye,[3]; tolterodine ER 4 mg,10 (3.9) n (%)
same,Dry mouth,[3]; tolterodine ER 4 mg,22 (8.6) n (%)
same,Dysuria,[3]; tolterodine ER 4 mg,3 (1.2) n (%)
same,Fatigue,[3]; tolterodine ER 4 mg,6 (2.3) n (%)
same,Headache,[3]; tolterodine ER 4 mg,9 (3.5) n (%)
same,Nasopharyngitis,[3]; tolterodine ER 4 mg,4 (1.6) n (%)
same,Nausea,[3]; tolterodine ER 4 mg,6 (2.3) n (%)
same,Osteoarthritis,[3]; tolterodine ER 4 mg,0 (0.0) n (%)
same,Pain in extremity,[3]; tolterodine ER 4 mg,1 (0.4) n (%)
same,Serious AE,[3]; tolterodine ER 4 mg,3 (1.2) n (%)
same,Sinusitis,[3]; tolterodine ER 4 mg,1 (0.4) n (%)
same,Subjects with ≥1 AE,[3]; tolterodine ER 4 mg,116 (45.1) n (%)
same,Urinary tract infection,[3]; tolterodine ER 4 mg,12 (4.7) n (%)
